# In PMC7394244 (Journal of medicinal chemistry, 2020):
# “And” between values parts separate entries of the source, which are not always exact repeats. Equal values may be shown once. Read-outs that look alike come from different tables or passages of the source.
# Assays:
# [1] = rat plasma; cited from earlier work
# P. falciparum Dd2 = conditions: read-out: EC50 Dd2 (parental); cited from earlier work
# R2B = test: microbe, parasite or virus in culture; conditions: Plasmodium falciparum, read-out: EC50 R2B
# R1BC1A = test: microbe, parasite or virus in culture; conditions: Plasmodium falciparum, read-out: EC50 R1BC1A
# [2] = cited from earlier work
# [3] = mouse liver microsomes; cited from earlier work
# [4] = rat liver microsomes; cited from earlier work
# R10C1B = test: microbe, parasite or virus in culture; conditions: Plasmodium falciparum, read-out: EC50 R10C1B
# [5] = cited from earlier work; remark: listed apart in the source
# [6] = human liver microsomes; cited from earlier work
# [7] = cited from earlier work; remark: listed apart in the source
# [8] = In vitro metabolism, mouse liver microsomes
# [9] = mouse plasma; cited from earlier work
# [10] = human plasma; cited from earlier work
# [11] = cited from earlier work; remark: listed apart in the source
# Pf3D7 cells = test: P. falciparum 3D7 growth inhibition; assay type: cell-based
# PfDHODH = biological target: T1, PfDHODH (Plasmodium falciparum, UniProt Q08210); test: biochemical; set-up: species or system P. falciparum
# T1 sequence (Q08210 24-569): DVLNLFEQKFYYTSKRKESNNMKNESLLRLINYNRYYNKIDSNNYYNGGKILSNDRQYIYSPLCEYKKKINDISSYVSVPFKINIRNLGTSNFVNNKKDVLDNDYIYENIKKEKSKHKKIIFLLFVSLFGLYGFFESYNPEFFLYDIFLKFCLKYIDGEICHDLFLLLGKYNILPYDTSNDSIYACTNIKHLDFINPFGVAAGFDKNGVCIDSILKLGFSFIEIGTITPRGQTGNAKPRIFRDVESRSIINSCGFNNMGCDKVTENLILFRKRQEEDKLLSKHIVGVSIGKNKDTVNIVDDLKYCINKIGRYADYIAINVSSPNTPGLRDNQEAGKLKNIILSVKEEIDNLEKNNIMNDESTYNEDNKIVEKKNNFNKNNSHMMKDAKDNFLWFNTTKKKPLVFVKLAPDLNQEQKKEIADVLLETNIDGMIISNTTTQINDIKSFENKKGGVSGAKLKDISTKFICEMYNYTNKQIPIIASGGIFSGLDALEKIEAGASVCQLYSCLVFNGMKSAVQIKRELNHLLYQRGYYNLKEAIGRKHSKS
# KV1.5 K+ = KV1.5 K+ (Homo sapiens, UniProt P22460); test: Potassium channel IonWorks patch clamp electrophysiology; assay type: cell-based
# KV1.5 K+, sequence (P22460 whole entry): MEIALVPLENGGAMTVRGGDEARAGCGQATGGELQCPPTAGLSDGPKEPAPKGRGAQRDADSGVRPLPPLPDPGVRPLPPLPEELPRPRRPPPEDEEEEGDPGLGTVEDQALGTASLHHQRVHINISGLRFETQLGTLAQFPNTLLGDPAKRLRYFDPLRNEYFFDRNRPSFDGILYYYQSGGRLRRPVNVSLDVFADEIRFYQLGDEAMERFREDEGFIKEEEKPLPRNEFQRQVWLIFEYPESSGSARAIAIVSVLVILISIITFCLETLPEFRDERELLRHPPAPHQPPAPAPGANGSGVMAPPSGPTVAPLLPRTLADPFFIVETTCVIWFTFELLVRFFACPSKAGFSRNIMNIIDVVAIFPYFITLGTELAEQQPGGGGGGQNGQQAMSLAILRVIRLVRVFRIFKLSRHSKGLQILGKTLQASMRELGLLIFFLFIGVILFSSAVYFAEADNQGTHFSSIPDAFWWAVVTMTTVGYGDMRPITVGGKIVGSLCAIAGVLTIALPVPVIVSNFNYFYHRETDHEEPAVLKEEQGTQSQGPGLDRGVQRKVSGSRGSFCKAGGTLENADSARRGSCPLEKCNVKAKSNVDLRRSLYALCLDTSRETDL
# [12] = Blood exposure in P. falciparum-infected SCID mice; assay type: in vivo; conditions: NOD-scidIL2Rγnull, mouse, whole blood, po
# in vivo = conditions: male, Swiss outbred, mouse, plasma, iv
# hERG = hERG (Homo sapiens, UniProt Q12809); test: hERG IonWorks patch clamp electrophysiology; assay type: cell-based
# hERG, sequence (Q12809 whole entry): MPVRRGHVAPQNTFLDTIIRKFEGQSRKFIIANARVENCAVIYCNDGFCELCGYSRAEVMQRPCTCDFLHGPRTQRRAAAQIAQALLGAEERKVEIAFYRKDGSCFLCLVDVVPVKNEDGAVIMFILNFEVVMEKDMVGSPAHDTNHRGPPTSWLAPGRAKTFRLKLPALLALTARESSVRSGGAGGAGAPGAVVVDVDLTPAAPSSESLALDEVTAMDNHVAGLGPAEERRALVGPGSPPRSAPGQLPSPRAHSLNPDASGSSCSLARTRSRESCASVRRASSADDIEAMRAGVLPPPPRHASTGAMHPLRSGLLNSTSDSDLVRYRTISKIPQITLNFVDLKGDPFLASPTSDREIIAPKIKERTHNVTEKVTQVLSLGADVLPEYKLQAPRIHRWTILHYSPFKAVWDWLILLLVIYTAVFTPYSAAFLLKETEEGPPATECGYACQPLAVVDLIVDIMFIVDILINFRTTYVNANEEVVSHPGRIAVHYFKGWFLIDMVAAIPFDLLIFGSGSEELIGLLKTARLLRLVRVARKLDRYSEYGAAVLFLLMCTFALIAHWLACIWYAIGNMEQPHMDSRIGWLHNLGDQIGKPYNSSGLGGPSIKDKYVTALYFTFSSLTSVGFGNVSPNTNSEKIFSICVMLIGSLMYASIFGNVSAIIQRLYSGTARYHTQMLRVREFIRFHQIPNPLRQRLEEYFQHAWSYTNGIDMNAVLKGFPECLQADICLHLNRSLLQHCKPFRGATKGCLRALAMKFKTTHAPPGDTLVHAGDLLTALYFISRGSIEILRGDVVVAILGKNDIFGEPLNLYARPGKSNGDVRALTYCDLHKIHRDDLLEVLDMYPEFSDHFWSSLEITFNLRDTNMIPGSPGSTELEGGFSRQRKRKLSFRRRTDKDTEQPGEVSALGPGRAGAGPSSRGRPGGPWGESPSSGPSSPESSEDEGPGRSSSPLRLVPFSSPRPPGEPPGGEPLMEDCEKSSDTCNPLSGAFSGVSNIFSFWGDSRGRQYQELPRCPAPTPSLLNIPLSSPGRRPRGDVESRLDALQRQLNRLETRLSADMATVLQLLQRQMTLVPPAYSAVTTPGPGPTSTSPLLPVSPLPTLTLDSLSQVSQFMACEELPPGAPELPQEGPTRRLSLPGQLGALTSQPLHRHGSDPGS
# Plasma protein binding [13] = assay type: in vitro ADME; conditions: rat plasma
# Plasma protein binding [14] = assay type: in vitro ADME; conditions: mouse plasma
# Microsome binding = assay type: in vitro ADME, human
# Albumax medium binding = assay type: in vitro ADME
# Plasma protein binding [15] = assay type: in vitro ADME; conditions: human plasma
# [16] = Plasmodium falciparum, read-out: EC50 Pf3D7 cells
# [17] = Plasmodium falciparum, read-out: potency on Pf3D7 parasites
structure (smiles),measurement,setting,value
Cc1cc(Nc2ccc(S(F)(F)(F)(F)F)cc2)n2nc(C(C)(F)F)nc2n1 [Compound 1],R plasma protein binding,[1],97.0 % bound
same,EC50,P. falciparum Dd2,4.6 nM
same,EC50,R2B,74 nM
same,EC50,R1BC1A,80 nM
same,Microsome binding,[2],71.7 % bound
same,M CLint,[3],<7 / <7 / <7 μL/min/mg
same,R CLint,[4],<7 / <7 / <7 μL/min/mg
same,EC50,R10C1B,120 nM
same,Solubility FeSSIF (pH 5.8),[5],27.6 μg/mL
same,H CLint,[6],<7 / <7 / <7 μL/min/mg
same,Albumax binding,[7],83.1 % bound
same,microsomal CLint at 1 μM,[8],8 µL/min/mg
same,M plasma protein binding,[9],99.7 % bound
same,H plasma protein binding,[10],99.9 % bound
same,human half-life,[11],~ 100 hours
"CCOC(=O)c1[nH]c(C)c(Cc2ccc(OCC)cc2)c1C [Compound 3, Ethyl 4-(4-ethoxybenzyl)-3,5-dimethyl-1H-pyrrole-2-carboxylate]",EC50,Pf3D7 cells; [16],230 nM
same,EC50,Pf3D7 cells; read-out: EC50 Pf3D7 cells,250 nM
"CCOC(=O)c1[nH]c(C)c(Cc2ccc(C(F)(F)F)cc2)c1C [Compound 4, Ethyl 3,5-dimethyl-4-(4-(trifluoromethyl)benzyl)-1H-pyrrole-2-carboxylate]",EC50,Pf3D7 cells; [16],61 nM
same,EC50,Pf3D7 cells; read-out: EC50 Pf3D7 cells,71 nM
"CCNC(=O)c1[nH]c(C)c(Cc2ccc(C(F)(F)F)nc2)c1C [Compound 16, N-Ethyl-3,5-dimethyl-4-((6-(trifluoromethyl)pyridin-3-yl)methyl)-1H-pyrrole-2-carboxamide]",EC50,Pf3D7 cells; [17],< 50 nM
same,IC50,PfDHODH; potency on PfDHODH,< 50 nM
"Cc1[nH]c(C(=O)NC2CC2)c(C)c1Cc1ccc(C(F)(F)F)nc1 [Compound 18, N-Cyclopropyl-3,5-dimethyl-4-((6-(trifluoromethyl)pyridin-3-yl)methyl)-1H-pyrrole-2-carboxamide]",EC50,Pf3D7 cells; [17],< 50 nM
"Cc1[nH]c(C(=O)NC2CCC2)c(C)c1Cc1ccc(C(F)(F)F)nc1 [Compound 19, N-Cyclobutyl-3,5-dimethyl-4-((6-(trifluoromethyl)pyridin-3-yl)methyl)-1H-pyrrole-2-carboxamide]",IC50,PfDHODH; IC50 PfDHODH,72 nM and 42 nM
"Cc1[nH]c(C(=O)NC2CCC2)c(C)c1Cc1ccc(C(F)(F)F)cn1 [Compound 25, N-Cyclobutyl-3,5-dimethyl-4-((5-(trifluoromethyl)pyridin-2-yl)methyl)-1H-pyrrole-2-carboxamide]",EC50,Pf3D7 cells; [16],470 nM
same,EC50,Pf3D7 cells; read-out: EC50 Pf3D7 cells,680 nM
Cc1c(Cc2ccc(C(F)(F)F)nc2)c[nH]c1C(=O)NC1CC1 [Compound 37],Human Ion Channel activity KV1.5 K+,KV1.5 K+,>11 µM
same,AUC(0-t),[12]; 10 mg/kg,680 ng·h/mL
same,AUC(0-t),[12]; 50 mg/kg,8600 ng·h/mL
same,Cmax,[12]; 50 mg/kg,2520 ng/mL
same,clearance at 24 h,in vivo,26.1 mL/min/kg
same,Human Ion Channel activity hERG,hERG,>33 µM
same,R plasma protein binding,Plasma protein binding [13],88.2 % bound
same,M plasma protein binding,Plasma protein binding [14],88 % bound and 88.9 % bound
same,Microsome binding,Microsome binding,29.9 % bound
same,Albumax binding,Albumax medium binding,51.8 % bound
same,H plasma protein binding,Plasma protein binding [15],90 % bound
"Cc1c(Cc2ccc(C(F)(F)F)nc2)c[nH]c1C(=O)NCC(F)(F)F [Compound 39, 3-Methyl-N-(2,2,2-trifluoroethyl)-4-((6-(trifluoromethyl)pyridin-3-yl)methyl)-1H-pyrrole-2-carboxamide]",EC50,Pf3D7 cells; [16],44 nM
same,EC50,Pf3D7 cells; read-out: EC50 Pf3D7 cells,59 nM
"Cc1c(Cc2ccc(C(F)(F)F)cc2F)c[nH]c1C(=O)NC1CC1 [Compound 60, N-Cyclopropyl-4-(2-fluoro-4-(trifluoromethyl)benzyl)-3-methyl-1H-pyrrole-2-carboxamide]",EC50,Pf3D7 cells; [17],< 30 nM
"Cc1c(Cc2ccc(C(F)(F)F)cc2Cl)c[nH]c1C(=O)NC1CC1 [Compound 66, 4-(2-chloro-4-(trifluoromethyl)benzyl)-N-cyclopropyl-3-methyl-1H-pyrrole-2-carboxamide]",EC50,Pf3D7 cells; [17],< 30 nM
